Measured values as given in US20240148723A1, “MYCOBACTERIUM TUBERCULOSIS COMPOSITIONS AND METHODS” (priority 2021, published 2024).
Converted amounts (≈) assume the structure as drawn.

tested on: M. tuberculosis H37Ra; assay: microbe, parasite or virus in culture; format: cell-based, Mycobacterium tuberculosis; settings: Mycobacterium tuberculosis, H37RA, 336 h, pH 6.8

| Compound | MIC |
| --- | --- |
| CC[C@@H](CO)NCCN[C@@H](CC)CO [ethambutol] | 2 µg/mL (≈ 9.79 µM) |
| NNC(=O)c1ccncc1 [isoniazid] | 0.02 µg/mL (≈ 0.146 µM) |
| CO[C@H]1/C=C/O[C@@]2(C)Oc3c(C)c(O)c4c(O)c(c(/C=N/N5CCN(C)CC5)c(O)c4c3C2=O)NC(=O)/C(C)=C\C=C\[C@H](C)[C@H](O)[C@@H](C)[C@@H](O)[C@@H](C)[C@H](OC(C)=O)[C@@H]1C [rifampin] | 0.13 µg/mL (≈ 0.158 µM) |

same assay, conditions: Mycobacterium tuberculosis, H37RA, pH 6.8

| Compound | MIC |
| --- | --- |
| COc1nc2ccc(Br)cc2cc1[C@@H](c1ccccc1)[C@@](O)(CCN(C)C)c1cccc2ccccc12 [bedaquiline] | 0.064 µg/mL (≈ 0.115 µM) |
| CC[C@@H](CO)NCCN[C@@H](CC)CO [ethambutol] | 1.6 µg/mL (≈ 7.83 µM) |
| CCc1cc(C(N)=S)ccn1 [ethionamide] | 0.5 µg/mL (≈ 3.01 µM) |
| NNC(=O)c1ccncc1 [isoniazid] | 0.06 µg/mL (≈ 0.438 µM) |
| CC(=O)NC[C@H]1CN(c2ccc(N3CCOCC3)c(F)c2)C(=O)O1 [linezolid] | 2 µg/mL (≈ 5.93 µM) |
| COc1c(N2C[C@@H]3CCCN[C@@H]3C2)c(F)cc2c(=O)c(C(=O)O)cn(C3CC3)c12 [moxifloxacin] | 0.25 µg/mL (≈ 0.623 µM) |
| CO[C@H]1/C=C/O[C@@]2(C)Oc3c(C)c(O)c4c(O)c(c(/C=N/N5CCN(C)CC5)c(O)c4c3C2=O)NC(=O)/C(C)=C\C=C\[C@H](C)[C@H](O)[C@@H](C)[C@@H](O)[C@@H](C)[C@H](OC(C)=O)[C@@H]1C [rifampin] | 0.06 µg/mL (≈ 0.0729 µM) |
| [H]/N=C(/N)N[C@H]1[C@H](O)[C@@H](O)[C@H](O[C@@H]2O[C@@H](C)[C@](O)(C=O)[C@H]2O[C@@H]2O[C@@H](CO)[C@H](O)[C@@H](O)[C@@H]2NC)[C@@H](N/C(N)=N\[H])[C@@H]1O [streptomycin] | 0.25 µg/mL (≈ 0.43 µM) |

tested on: M. tuberculosis; assay: not given; format: cell-based, Mycobacterium tuberculosis; settings: pH 6.8

| Compound | MIC in the media 7H9 | MIC in the media L-Ala | MIC in the media SBA | MIC in the media SLac |
| --- | --- | --- | --- | --- |
| Cc1ccc2ccc(C#N)cc2c1O [compound 128068] | ≥ 18.32 µg/mL | 9.16 µg/mL (≈ 50 µM) | 9.16 µg/mL (≈ 50 µM) | 2.29 µg/mL (≈ 12.5 µM) |
| CCCCOC(=O)c1ccc(N)cc1 [compound 128464] | ≥ 800 µg/mL | 0.06 µg/mL (≈ 0.31 µM) | 0.06 µg/mL (≈ 0.31 µM) | 0.06 µg/mL (≈ 0.31 µM) |
| COC1C=COC2(C)Oc3c(C)c(O)c4c(O)c(cc(O)c4c3C2=O)NC(=O)C(C)=CC=CC(C)C(O)C(C)C(O)C(C)C(OC(C)=O)C1C (stereo not drawn) [compound 133100] | ≥ 0.56 µg/mL | 0.56 µg/mL (≈ 0.803 µM) | 0.56 µg/mL (≈ 0.803 µM) | 0.56 µg/mL (≈ 0.803 µM) |
| CSc1nc(=O)[nH]nc1Sc1ccccc1 [compound 134058] | ≥ 25.13 µg/mL | 6.28 µg/mL (≈ 25 µM) | 3.14 µg/mL (≈ 12.5 µM) | 3.14 µg/mL (≈ 12.5 µM) |
| Cc1ccc(C)c(N2CCN(c3ccncc3N)CC2)c1 [compound 147866] | ≥ 14.12 µg/mL | 14.12 µg/mL (≈ 50 µM) | 7.06 µg/mL (≈ 25 µM) | 1.77 µg/mL (≈ 6.27 µM) |
| CC1(C)CCSC(C=Cc2ccccc2)=N1 [compound 150954] | ≥ 11.57 µg/mL | 5.78 µg/mL (≈ 25 µM) | 2.89 µg/mL (≈ 12.5 µM) | 2.89 µg/mL (≈ 12.5 µM) |
| O=[N+]([O-])/C=C/c1cc2ccccc2[nH]1 [compound 150982] | ≥ 18.82 µg/mL | 9.41 µg/mL (≈ 50 µM) | 4.70 µg/mL (≈ 25 µM) | 2.35 µg/mL (≈ 12.5 µM) |
| CCOc1ccc(N=Nc2ccc(N)cc2N)cc1 [compound 190374] | ≥ 6.41 µg/mL | 3.20 µg/mL (≈ 12.5 µM) | 6.41 µg/mL (≈ 25 µM) | 3.20 µg/mL (≈ 12.5 µM) |
| Cc1ccc([S+]([O-])c2ccc([N+](=O)[O-])c3nonc23)cc1 (stereo not drawn) [compound 228150] | ≥ 30.33 µg/mL | 7.58 µg/mL (≈ 25 µM) | 3.79 µg/mL (≈ 12.5 µM) | 3.79 µg/mL (≈ 12.5 µM) |
| O=[N+]([O-])c1ccc(Sc2cccc[n+]2[O-])c2nonc12 [compound 228155] | ≥ 0.93 µg/mL | 0.93 µg/mL (≈ 3.2 µM) | 0.93 µg/mL (≈ 3.2 µM) | 0.93 µg/mL (≈ 3.2 µM) |
| Cn1ccc(=Nc2ccc(NC(=O)c3ccc(N=c4ccn(C)c5ccc([N+](=O)[O-])cc45)cc3)cc2)cc1 [compound 260594] | ≥ 0.81 µg/mL | 0.81 µg/mL (≈ 1.61 µM) | 1.61 µg/mL (≈ 3.19 µM) | 0.40 µg/mL (≈ 0.793 µM) |
| CSc1ccc2c(c1)C(N1CCN(C)CC1)Cc1ccccc1S2.O=C(O)/C=C\C(=O)O (stereo not drawn) [compound 281816] | ≥ 11.82 µg/mL | 2.95 µg/mL | 2.95 µg/mL | 2.95 µg/mL |
| O=C1c2cccc3cc([N+](=O)[O-])cc(c23)C(=O)N1CCN1CCCC1 [compound 300289] | ≥ 8.48 µg/mL | 4.24 µg/mL (≈ 12.5 µM) | 2.12 µg/mL (≈ 6.25 µM) | 2.12 µg/mL (≈ 6.25 µM) |
| c1ccc2c(c1)Sc1ccccc1N2CC1CN2CCC1CC2 (stereo not drawn) [compound 303612] | ≥ 16.13 µg/mL | 8.06 µg/mL (≈ 25 µM) | 8.06 µg/mL (≈ 25 µM) | 4.03 µg/mL (≈ 12.5 µM) |
| OC(c1cc(-c2ccc(C(F)(F)F)cc2)nc(C(F)(F)F)c1)C1CCCCN1 (stereo not drawn) [compound 305798] | ≥ 10.11 µg/mL | 1.25 µg/mL (≈ 3.09 µM) | 2.53 µg/mL (≈ 6.26 µM) | 2.53 µg/mL (≈ 6.26 µM) |
| O=[N+]([O-])c1cnc(Sc2ccncn2)s1 [compound 311727] | ≥ 24.03 µg/mL | 0.77 µg/mL (≈ 3.2 µM) | 0.77 µg/mL (≈ 3.2 µM) | 0.77 µg/mL (≈ 3.2 µM) |
| Cc1ccc(NCCN(C)C)c2c(=O)c3cc(O)ccc3sc12.I [compound 317003] | ≥ 5.70 µg/mL | 2.85 µg/mL | 2.85 µg/mL | 1.46 µg/mL |

| Compound | MIC in the media 7H9 | MIC in the media L-Ala | MIC in the media SBA | MIC in the media SLac |
| --- | --- | --- | --- | --- |
| COc1cccc2[nH]c(-c3ccccn3)nc12 [compound 320656] | ≥ 45.06 µg/mL | 5.63 µg/mL (≈ 25 µM) | 11.27 µg/mL (≈ 50 µM) | 1.41 µg/mL (≈ 6.26 µM) |
| CS(=O)(=O)O.OC(c1cc(C(F)(F)F)nc2c(Cl)cc(Cl)cc12)C1CCCCN1 (stereo not drawn) [compound 322661] | ≥ 11.88 µg/mL | 2.97 µg/mL | 1.52 µg/mL | 2.97 µg/mL |
| NC1(N2SC(S)=C3CCCC=C32)CCCCC1 [compound 327444] | ≥ 26.84 µg/mL | 6.71 µg/mL (≈ 25 µM) | 13.42 µg/mL (≈ 50 µM) | 3.36 µg/mL (≈ 12.5 µM) |
| Cc1cc(C(C#N)c2ccc(Cl)cc2)c(Cl)cc1NC(=O)c1cc(I)cc(I)c1O (stereo not drawn) [compound 335306] | ≥ 66.31 µg/mL | 4.14 µg/mL (≈ 6.24 µM) | 4.14 µg/mL (≈ 6.24 µM) | 4.14 µg/mL (≈ 6.24 µM) |
| Oc1c(N=Nc2nn[nH]n2)ccc2ccccc12 [compound 338106] | ≥ 3.00 µg/mL | 1.50 µg/mL (≈ 6.24 µM) | 1.50 µg/mL (≈ 6.24 µM) | 0.77 µg/mL (≈ 3.21 µM) |
| CC[C@@]1([C@@H]2O[C@@H]([C@H]3O[C@@](O)(CO)[C@H](C)C[C@@H]3C)C[C@@H]2C)CC[C@H]([C@]2(C)CC[C@]3(C[C@H](O)[C@@H](C)[C@@H]([C@@H](C)[C@@H](OC)[C@H](C)C(=O)[O-])O3)O2)O1.[Na+] [compound 343257] | ≥ 4.33 µg/mL | 4.33 µg/mL | 4.33 µg/mL | 8.66 µg/mL |
| O=[N+]([O-])c1oc2ccc3ccccc3c2c1CCO [compound 373981] | ≥ 0.82 µg/mL | 0.82 µg/mL (≈ 3.19 µM) | 0.82 µg/mL (≈ 3.19 µM) | 0.82 µg/mL (≈ 3.19 µM) |
| O=C(Nc1ccccc1)c1cc(Cl)ccc1O [compound 402600] | ≥ 24.77 µg/mL | 1.55 µg/mL (≈ 6.26 µM) | 1.55 µg/mL (≈ 6.26 µM) | 0.79 µg/mL (≈ 3.19 µM) |
| CCCOC(=O)c1ccc([N+](=O)[O-])cc1 [compound 406847] | ≥ 83.68 µg/mL | 5.23 µg/mL (≈ 25 µM) | 10.46 µg/mL (≈ 50 µM) | 5.23 µg/mL (≈ 25 µM) |
| O=C(CCc1ccc(O)cc1)c1c(O)cc(O)cc1O [compound 407292] | ≥ 109.72 µg/mL | 1.71 µg/mL (≈ 6.23 µM) | 3.43 µg/mL (≈ 12.5 µM) | 1.71 µg/mL (≈ 6.23 µM) |
| Cc1nc(C(=O)N=C(N)N)c(N)nc1-c1ccccc1 [compound 614911] | ≥ 108.12 µg/mL | 13.52 µg/mL (≈ 50 µM) | 27.03 µg/mL (≈ 100 µM) | 27.03 µg/mL (≈ 100 µM) |
| Cl.O=C(c1ccc(OCCN2CCCCC2)cc1)c1c(-c2ccc(O)cc2)sc2cc(O)ccc12 [compound 747974] | ≥ 47.36 µg/mL | 2.96 µg/mL | 2.96 µg/mL | 2.96 µg/mL |
| O=C(c1ccc(F)c(F)c1Nc1ccc(I)cc1F)N1CC(O)(C2CCCCN2)C1 (stereo not drawn) [compound 768068] | ≥ 26.57 µg/mL | 13.28 µg/mL (≈ 25 µM) | 3.32 µg/mL (≈ 6.25 µM) | 3.32 µg/mL (≈ 6.25 µM) |
| CN1CCN(c2ccc(C(=O)Nc3n[nH]c4ccc(Cc5cc(F)cc(F)c5)cc34)c(NC3CCOCC3)c2)CC1 [compound 774769] | ≥ 28.03 µg/mL | 7.01 µg/mL (≈ 12.5 µM) | 3.50 µg/mL (≈ 6.24 µM) | 3.50 µg/mL (≈ 6.24 µM) |
| C=CC(=O)Nc1cc(Nc2nccc(-c3cn(C)c4ccccc34)n2)c(OC)cc1N(C)CCN(C)C [compound 779217] | ≥ 12.49 µg/mL | 3.12 µg/mL (≈ 6.24 µM) | 3.12 µg/mL (≈ 6.24 µM) | 1.60 µg/mL (≈ 3.2 µM) |
| CN1CCc2cc3c(c4c2C1Cc1ccccc1-4)OCO3.Cl (stereo not drawn) [compound 785164] | ≥ 13.97 µg/mL | 6.98 µg/mL | 3.49 µg/mL | 1.75 µg/mL |
| COc1cc2c(cc1O)C[C@H]1c3c(cc4c(c3-2)OCO4)CCN1C [compound 785178] | ≥ 16.27 µg/mL | 8.13 µg/mL (≈ 25 µM) | 4.07 µg/mL (≈ 12.5 µM) | 4.07 µg/mL (≈ 12.5 µM) |
